Source: PubChem BioAssay AID1963979 (Molecular Pharmacology Branch, DTP, NCI, 2024)

Tested on: 361931-004-R-J1-PDC multicell spheroid viability
Assay: Anticancer human tumor 361931-004-R-J1-PDC patient-derived colon adenocarcinoma cell line growth inhibition [PI3K]
Settings: for viability, T/C: stronger effect = lower value
Outline: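 Combination activity was assessed by viability in multicellular tumor spheroids carrying HUVEC and MSC components. Agents were tested with PI3K inhibitors from a Cmax-based top dose (or 10 microM) downward in half-log increments.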

[1] = curve of first compound, second compound 0.0316 µM
[2] = curve of first compound, second compound 0.1 µM
[3] = curve of first compound, second compound 0.316 µM
[4] = curve of first compound, second compound 1 µM
[5] = second compound 0.0316 µM, first compound 0.0316 µM
[6] = second compound 0.0316 µM, first compound 0.1 µM
[7] = second compound 0.1 µM, first compound 0.0316 µM
[8] = second compound 0.1 µM, first compound 0.1 µM
[9] = second compound 0.316 µM, first compound 0.0316 µM
[10] = second compound 0.316 µM, first compound 0.1 µM
[11] = second compound 1 µM, first compound 0.0316 µM
[12] = second compound 1 µM, first compound 0.1 µM
[13] = curve of first compound, second compound 3.16 µM
[14] = curve of first compound, second compound 10 µM
[15] = second compound 0.0316 µM, first compound 0.316 µM
[16] = second compound 0.0316 µM, first compound 1 µM
[17] = second compound 0.0316 µM, first compound 3.16 µM
[18] = second compound 0.0316 µM, first compound 10 µM
[19] = second compound 0.1 µM, first compound 0.316 µM
[20] = second compound 0.1 µM, first compound 1 µM
[21] = second compound 0.1 µM, first compound 3.16 µM
[22] = second compound 0.1 µM, first compound 10 µM
[23] = second compound 0.316 µM, first compound 0.316 µM
[24] = second compound 0.316 µM, first compound 1 µM
[25] = second compound 0.316 µM, first compound 3.16 µM
[26] = second compound 0.316 µM, first compound 10 µM
[27] = second compound 1 µM, first compound 0.316 µM
[28] = second compound 1 µM, first compound 1 µM
[29] = second compound 1 µM, first compound 3.16 µM
[30] = second compound 1 µM, first compound 10 µM
[31] = second compound 3.16 µM, first compound 0.0316 µM
[32] = second compound 3.16 µM, first compound 0.1 µM
[33] = second compound 3.16 µM, first compound 0.316 µM
[34] = second compound 3.16 µM, first compound 1 µM
[35] = second compound 3.16 µM, first compound 3.16 µM
[36] = second compound 3.16 µM, first compound 10 µM
[37] = second compound 10 µM, first compound 0.0316 µM
[38] = second compound 10 µM, first compound 0.1 µM
[39] = second compound 10 µM, first compound 0.316 µM
[40] = second compound 10 µM, first compound 1 µM
[41] = second compound 10 µM, first compound 3.16 µM
[42] = second compound 10 µM, first compound 10 µM
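Also: spheroids exposed to agents for seven days before readout.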

With CC(=O)c1c(C)c2cnc(Nc3ccc(N4CCNCC4)cn3)nc2n(C2CCCC2)c1=O + CC(Nc1ccc2c(c1)OCCn1cc(N3C(=O)OCC3C(F)F)nc1-2)C(N)=O the IC50 (curve of first compound, second compound 0.00316 µM) was over 0.1 µM, the IC50 (curve of first compound, second compound 0.01 µM) was over 0.1 µM and the IC50 [1] was over 0.1 µM. The IC50 [2] was over 0.1 µM, the IC50 [3] was over 0.1 µM and the IC50 [4] was 0.0916 µM. For the same compound, the viability, T/C (second compound 0.00316 µM, first compound 0.000316 µM) was 97.9%, the viability, T/C (second compound 0.00316 µM, first compound 0.001 µM) was 106% and the viability, T/C (second compound 0.00316 µM, first compound 0.00316 µM) was 105%. For the same compound, the viability, T/C (second compound 0.00316 µM, first compound 0.01 µM) was 107%, the viability, T/C (second compound 0.00316 µM, first compound 0.0316 µM) was 99.4% and the viability, T/C (second compound 0.00316 µM, first compound 0.1 µM) was 73.7%. For the same compound, the viability, T/C (second compound 0.01 µM, first compound 0.000316 µM) was 111%, the viability, T/C (second compound 0.01 µM, first compound 0.001 µM) was 104% and the viability, T/C (second compound 0.01 µM, first compound 0.00316 µM) was 104%. For the same compound, the viability, T/C (second compound 0.01 µM, first compound 0.01 µM) was 99.8%, the viability, T/C (second compound 0.01 µM, first compound 0.0316 µM) was 99.1% and the viability, T/C (second compound 0.01 µM, first compound 0.1 µM) was 76.8%. It also gave a viability, T/C (second compound 0.0316 µM, first compound 0.000316 µM) of 102%, a viability, T/C (second compound 0.0316 µM, first compound 0.001 µM) of 102% and a viability, T/C (second compound 0.0316 µM, first compound 0.00316 µM) of 93.8%. It also gave a viability, T/C (second compound 0.0316 µM, first compound 0.01 µM) of 86.8%, a viability, T/C [5] of 91% and a viability, T/C [6] of 82.6%. For the same compound, the viability, T/C (second compound 0.1 µM, first compound 0.000316 µM) was 98.8%, the viability, T/C (second compound 0.1 µM, first compound 0.001 µM) was 87.2% and the viability, T/C (second compound 0.1 µM, first compound 0.00316 µM) was 86.1%. It also gave a viability, T/C (second compound 0.1 µM, first compound 0.01 µM) of 89%, a viability, T/C [7] of 90.4% and a viability, T/C [8] of 63.8%. For the same compound, the viability, T/C (second compound 0.316 µM, first compound 0.000316 µM) was 96.5%, the viability, T/C (second compound 0.316 µM, first compound 0.001 µM) was 87.1% and the viability, T/C (second compound 0.316 µM, first compound 0.00316 µM) was 90.8%. It also gave a viability, T/C (second compound 0.316 µM, first compound 0.01 µM) of 77.6%, a viability, T/C [9] of 81.4% and a viability, T/C [10] of 61.9%. For the same compound, the viability, T/C (second compound 1 µM, first compound 0.000316 µM) was 86.6%, the viability, T/C (second compound 1 µM, first compound 0.001 µM) was 78.5% and the viability, T/C (second compound 1 µM, first compound 0.00316 µM) was 75%. It also gave a viability, T/C (second compound 1 µM, first compound 0.01 µM) of 85.1%, a viability, T/C [11] of 64.3% and a viability, T/C [12] of 48.9%.
In the case of CC1(C)CCC(Nc2ncc(C(F)(F)F)c(-c3c[nH]c4c(P(C)(C)=O)c(C#N)ccc34)n2)CN1 (centres undefined), the viability, T/C (compound 0.1 µM) is reported as 94.6% [middle of 4 runs], the viability, T/C (compound 10 µM) is reported as 12.9% [middle of 4 runs] and the IC50 (curve of compound) is reported as 5.63 µM [middle of 4 runs].
CC1(C)CCC(Nc2ncc(C(F)(F)F)c(-c3c[nH]c4c(P(C)(C)=O)c(C#N)ccc34)n2)CN1 (centres undefined) + CC(Nc1ncnc2nc[nH]c12)c1cc2cccc(Cl)c2c(=O)n1-c1ccccc1 gave an IC50 [1] of 6.27 µM, an IC50 [2] of 5.92 µM and an IC50 [3] of 5.95 µM. It also gave an IC50 [4] of 5.58 µM, an IC50 [13] of 5.2 µM and an IC50 [14] of 4.73 µM. The viability, T/C [5] was 106%, the viability, T/C [6] was 108% and the viability, T/C [15] was 104%. For the same compound, the viability, T/C [16] was 101%, the viability, T/C [17] was 103% and the viability, T/C [18] was 13.7%. It also gave a viability, T/C [7] of 122%, a viability, T/C [8] of 103% and a viability, T/C [19] of 96%. The viability, T/C [20] was 101%, the viability, T/C [21] was 93.4% and the viability, T/C [22] was 14.5%. It also gave a viability, T/C [9] of 108%, a viability, T/C [10] of 106% and a viability, T/C [23] of 99.4%. The viability, T/C [24] was 98%, the viability, T/C [25] was 95.8% and the viability, T/C [26] was 12.4%. For the same compound, the viability, T/C [11] was 110%, the viability, T/C [12] was 101% and the viability, T/C [27] was 98.8%. For the same compound, the viability, T/C [28] was 98.4%, the viability, T/C [29] was 86.9% and the viability, T/C [30] was 12.8%. The viability, T/C [31] was 105%, the viability, T/C [32] was 94.9% and the viability, T/C [33] was 95.8%. For the same compound, the viability, T/C [34] was 94.1%, the viability, T/C [35] was 80.6% and the viability, T/C [36] was 10.6%. It also gave a viability, T/C [37] of 93.1%, a viability, T/C [38] of 90.8% and a viability, T/C [39] of 88.9%. For the same compound, the viability, T/C [40] was 88%, the viability, T/C [41] was 74% and the viability, T/C [42] was 5.6%.
CNC(=O)c1ccc(N2C(=S)N(c3ccc(C#N)c(C(F)(F)F)c3)C(=O)C2(C)C)cc1F + Cc1nc(NC(=O)N2CCCC2C(N)=O)sc1-c1ccnc(C(C)(C)C(F)(F)F)c1 showed an IC50 [1] of over 10 µM, an IC50 [2] of over 10 µM and an IC50 [3] of over 10 µM. It also gave an IC50 [4] of over 10 µM, an IC50 [13] of over 10 µM and an IC50 [14] of over 10 µM. It also gave a viability, T/C [5] of 113%, a viability, T/C [6] of 101% and a viability, T/C [15] of 91%. It also gave a viability, T/C [16] of 90.8%, a viability, T/C [17] of 98% and a viability, T/C [18] of 99.6%. For the same compound, the viability, T/C [7] was 106%, the viability, T/C [8] was 101% and the viability, T/C [19] was 87.4%. For the same compound, the viability, T/C [20] was 94.4%, the viability, T/C [21] was 93.3% and the viability, T/C [22] was 86.6%. It also gave a viability, T/C [9] of 99.2%, a viability, T/C [10] of 90.8% and a viability, T/C [23] of 100%. It also gave a viability, T/C [24] of 104%, a viability, T/C [25] of 104% and a viability, T/C [26] of 95.8%. For the same compound, the viability, T/C [11] was 94.1%, the viability, T/C [12] was 93.5% and the viability, T/C [27] was 80%. It also gave a viability, T/C [28] of 94.5%, a viability, T/C [29] of 94.1% and a viability, T/C [30] of 85.6%. The viability, T/C [31] was 83.2%, the viability, T/C [32] was 82.9% and the viability, T/C [33] was 91.3%. It also gave a viability, T/C [34] of 84.2%, a viability, T/C [35] of 98% and a viability, T/C [36] of 70.3%. For the same compound, the viability, T/C [37] was 70.2%, the viability, T/C [38] was 67.1% and the viability, T/C [39] was 59.3%. It also gave a viability, T/C [40] of 69.1%, a viability, T/C [41] of 76.1% and a viability, T/C [42] of 45.2%.
